Experimental data as given in patent publication US10759803B2, “Asparagine endopeptidase (AEP) inhibitors for managing cancer and compositions related thereto” (priority 2014, dated 2020).
Each block holds one molecule with its values, some of them ahead of it.

Columns and labels:
AEP = biological target: T1, AEP (Homo sapiens, UniProt Q99538); assay: DTT / L-cysteine reversibility of AEP inhibition; type: biochemical; settings: 10 mM DTT or L-cysteine added after 15 min
T1 construct: tested with purified active AEP, IC50 values for the top 8 candidates were found
T1 sequence (Q99538 18-323 limits assumed): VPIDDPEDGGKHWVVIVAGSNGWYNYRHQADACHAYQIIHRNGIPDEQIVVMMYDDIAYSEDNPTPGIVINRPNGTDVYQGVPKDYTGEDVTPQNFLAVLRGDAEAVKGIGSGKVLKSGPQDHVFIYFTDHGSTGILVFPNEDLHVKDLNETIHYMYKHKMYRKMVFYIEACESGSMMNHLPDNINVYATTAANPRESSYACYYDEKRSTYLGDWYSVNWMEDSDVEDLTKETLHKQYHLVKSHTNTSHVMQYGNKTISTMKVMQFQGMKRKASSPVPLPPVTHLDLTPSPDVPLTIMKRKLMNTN
Procedure: AEP was reacted with specified inhibitor, after 15 min 10 mM DTT or L-cysteine was added to the reaction and the fluorescent signal was read for an additional 15 min. At the end of the second 15 min incubation, the percentage of product formed in the presence of each compound was determined in comparison to the DMSO control reaction.
Although it is not intended that embodiments of this disclosure be limited by any particular mechanism, to gain additional insight into the mechanism utilized by the inhibitors for abrogation of AEP activity, their reversibility in the presence of free thiols was determined. The addition of a strong reducing agent, such as DTT, or a weaker reducing agent, L-cysteine, to an inhibited reaction can be used to out-compete the inhibitory agent and restore catalytic activity to an enzyme with an active-site thiol residue. Here, a similar approach was used by adding a reducing agent, either DTT or L-cysteine, to a reaction, in which AEP had been incubated with a specified inhibitor, in an attempt to reverse the effects of the inhibitor. […] For compounds BB1 and 38, this increase in enzymatic activity may be due to the reduction of a disulfide linkage between the inhibitor and the enzyme, since these compounds contain thiols. Compound 10 contains a thiocyanate and may undergoes nucleophilic attack by the enzyme's active-site thiolate to form a thioimidate enzyme-inhibitor complex. Under acidic conditions, this complex is reducible by either a strong reducing agent, such as DTT, or the weaker L-cysteine.

[1] = biological target: T2, endogenous AEP in human B lymphoblastoid pala cells (Homo sapiens, UniProt Q99538); assay: AEP inhibition in intact Pala cells; type: cell-based; settings: 2 hrs incubation, residual enzymatic activity in lysate
T2 construct: human B lymphoblastoid pala cells, which are rich in endogenous AEP; endogenous in cells; host or cells: human B lymphoblastoid Pala cells
T2 sequence (Q99538 18-323): T1 sequence (Q99538 18-323 limits assumed)
Procedure: The cells were incubated with inhibitors for 2 hrs then cells washed, harvested and lysed and the residual enzymatic activity was determined. Lysate was normalized by Bradford assay and the experiment was performed in triplicate and the mean results and SEM were plotted.
In an attempt to assess the activity of the compounds in intact cells, the compounds were incubated with human B lymphoblastoid pala cells, which are rich in endogenous AEP and have been used for inhibiting AEP in cellular assay.

[2] = system: amyloid precursor protein (APP) cleavage; assay: APP cleavage in OGD-treated primary cortical neurons; type: cell-based
Procedure: A. AEP activity, measured in primary neuronal cultures with 5 μM Cbz-Ala-Ala-Asn-AMC (x-axis denotes neurons were treated with 0.1 μM or 1.0 μM specified compound). B. Caspase activity, measured in primary neuronal cultures with 5 μM Ac-Asp-Glu-Val-Asp-AMC. C. Cathepsin activity, measured in primary neuronal cultures with 5 μM D-Val-Leu-Lys-AMC. D. Inhibition of APP cleavage. Lysates of primary cortical neurons pre-incubated with compounds for 30 min, underwent OGD for 4 hrs, were reperfused for 18 hrs (normoxia neurons remained at normoxic conditions). E. APP can be cleaved in a dose-dependent manner. Lysates of primary cortical neurons pre-incubated with compounds for 30 min, underwent OGD for 4 hrs, were reperfused for 18 hrs (normoxia neurons remained at normoxic conditions).
Depriving cells of oxygen and glucose is a cellular model that is employed to trigger acidosis in cultured cells. The efficacy of the compounds in a cellular model of oxygen-glucose deprivation (OGD) was determined in an effort to mimic the effects of stroke in primary cultured neurons. As a result of depriving neurons of oxygen and glucose-containing medium, AEP activity was doubled (FIG. 7A, ‘DMSO-Norm’ compared to ‘DMSO-OGD’), while Caspase-3 and Cathepsin activities remained relatively unchanged. […] Cleavage of APP is observed in response to only DMSO treatment (FIG. 7D, lane 2), and it appears that upon the treatment of 1 μM of compounds 10, 11, and 12, and just 0.1 μM of compound s31, 38 and 64, the cleavage was blocked, presumably due to AEP inhibition.

CYP3A4 = CYP3A4 (Homo sapiens, UniProt P08684); assay: CYP inhibition screening, CYP3A4-Midazolam; type: in vitro ADME
Chain of CYP3A4 (P08684 whole entry): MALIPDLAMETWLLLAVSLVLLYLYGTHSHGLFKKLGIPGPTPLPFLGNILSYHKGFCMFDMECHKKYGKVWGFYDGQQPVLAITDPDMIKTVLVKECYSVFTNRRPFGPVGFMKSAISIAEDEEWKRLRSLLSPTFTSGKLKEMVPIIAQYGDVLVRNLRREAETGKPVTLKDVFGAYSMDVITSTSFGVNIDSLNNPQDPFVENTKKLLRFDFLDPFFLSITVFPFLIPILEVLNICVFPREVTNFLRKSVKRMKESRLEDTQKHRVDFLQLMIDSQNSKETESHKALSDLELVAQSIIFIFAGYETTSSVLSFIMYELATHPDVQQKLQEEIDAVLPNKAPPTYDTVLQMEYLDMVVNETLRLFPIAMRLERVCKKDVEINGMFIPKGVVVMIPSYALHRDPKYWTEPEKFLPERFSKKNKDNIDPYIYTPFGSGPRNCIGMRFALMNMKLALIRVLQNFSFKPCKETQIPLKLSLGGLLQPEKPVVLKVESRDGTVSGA

CYP2C19 = CYP2C19 (Homo sapiens, UniProt P33261); assay: CYP inhibition screening, CYP2C19; type: in vitro ADME
Chain of CYP2C19 (P33261 whole entry): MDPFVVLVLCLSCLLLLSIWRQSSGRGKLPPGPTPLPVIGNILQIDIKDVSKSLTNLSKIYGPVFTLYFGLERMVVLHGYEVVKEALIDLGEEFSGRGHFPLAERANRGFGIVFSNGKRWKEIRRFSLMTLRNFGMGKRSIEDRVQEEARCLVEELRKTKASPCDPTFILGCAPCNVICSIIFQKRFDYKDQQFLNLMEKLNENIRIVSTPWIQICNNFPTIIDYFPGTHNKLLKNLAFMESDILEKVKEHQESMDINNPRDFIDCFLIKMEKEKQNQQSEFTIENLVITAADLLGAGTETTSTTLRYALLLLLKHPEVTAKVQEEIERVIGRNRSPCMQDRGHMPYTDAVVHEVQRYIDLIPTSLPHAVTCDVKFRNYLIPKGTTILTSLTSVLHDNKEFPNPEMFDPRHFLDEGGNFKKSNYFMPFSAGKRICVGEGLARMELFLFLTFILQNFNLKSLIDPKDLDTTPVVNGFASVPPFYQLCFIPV

CYP2C9 = CYP2C9 (Homo sapiens, UniProt P11712); assay: CYP inhibition screening, CYP2C9; type: in vitro ADME
Chain of CYP2C9 (P11712 whole entry): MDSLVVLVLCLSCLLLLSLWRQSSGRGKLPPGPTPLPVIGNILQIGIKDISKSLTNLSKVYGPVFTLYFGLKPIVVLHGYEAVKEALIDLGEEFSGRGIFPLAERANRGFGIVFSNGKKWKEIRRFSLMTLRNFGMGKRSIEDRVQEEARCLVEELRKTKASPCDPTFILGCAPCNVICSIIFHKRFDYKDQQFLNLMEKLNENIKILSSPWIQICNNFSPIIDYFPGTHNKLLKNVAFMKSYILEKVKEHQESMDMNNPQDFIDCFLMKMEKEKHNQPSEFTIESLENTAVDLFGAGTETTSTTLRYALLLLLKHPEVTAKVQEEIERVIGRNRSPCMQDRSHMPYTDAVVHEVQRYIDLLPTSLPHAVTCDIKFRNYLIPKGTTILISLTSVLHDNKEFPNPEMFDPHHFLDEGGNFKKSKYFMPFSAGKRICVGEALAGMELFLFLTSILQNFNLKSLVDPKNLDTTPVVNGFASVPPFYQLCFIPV

CYP3A = assay: CYP inhibition screening, CYP3A-Testosterone; type: in vitro ADME
[3] = Human liver microsomal stability screen; settings: Human liver microsomes
CYP1A2 = biological target: T3, CYP1A2 (Homo sapiens, UniProt P05177); assay: CYP inhibition screening, CYP1A2; type: in vitro ADME
T3 sequence (P05177 1-516): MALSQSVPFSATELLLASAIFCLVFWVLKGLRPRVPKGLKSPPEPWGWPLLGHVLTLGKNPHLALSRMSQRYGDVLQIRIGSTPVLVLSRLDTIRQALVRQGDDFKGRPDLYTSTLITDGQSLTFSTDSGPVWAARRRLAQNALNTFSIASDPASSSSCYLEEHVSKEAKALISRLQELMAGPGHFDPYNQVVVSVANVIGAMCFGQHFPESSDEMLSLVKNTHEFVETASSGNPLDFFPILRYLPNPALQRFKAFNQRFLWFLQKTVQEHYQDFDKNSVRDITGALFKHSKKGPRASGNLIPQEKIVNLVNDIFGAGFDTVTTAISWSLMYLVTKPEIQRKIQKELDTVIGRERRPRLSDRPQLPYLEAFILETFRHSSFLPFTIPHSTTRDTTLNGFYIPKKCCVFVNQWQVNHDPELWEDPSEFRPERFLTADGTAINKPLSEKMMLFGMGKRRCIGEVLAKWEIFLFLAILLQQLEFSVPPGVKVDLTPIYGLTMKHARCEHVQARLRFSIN

Caco-2 monolayer = Caco-2 monolayer permeability screen
Procedure: To explore the in vitro ADME profiles of the compounds, additional tests were conducted.

[4] = BBB-PAMPA permeability assay; type: in vitro ADME
CYP2D6 = CYP2D6 (Homo sapiens, UniProt P10635); assay: CYP inhibition screening, CYP2D6; type: in vitro ADME
Chain of CYP2D6 (P10635 whole entry): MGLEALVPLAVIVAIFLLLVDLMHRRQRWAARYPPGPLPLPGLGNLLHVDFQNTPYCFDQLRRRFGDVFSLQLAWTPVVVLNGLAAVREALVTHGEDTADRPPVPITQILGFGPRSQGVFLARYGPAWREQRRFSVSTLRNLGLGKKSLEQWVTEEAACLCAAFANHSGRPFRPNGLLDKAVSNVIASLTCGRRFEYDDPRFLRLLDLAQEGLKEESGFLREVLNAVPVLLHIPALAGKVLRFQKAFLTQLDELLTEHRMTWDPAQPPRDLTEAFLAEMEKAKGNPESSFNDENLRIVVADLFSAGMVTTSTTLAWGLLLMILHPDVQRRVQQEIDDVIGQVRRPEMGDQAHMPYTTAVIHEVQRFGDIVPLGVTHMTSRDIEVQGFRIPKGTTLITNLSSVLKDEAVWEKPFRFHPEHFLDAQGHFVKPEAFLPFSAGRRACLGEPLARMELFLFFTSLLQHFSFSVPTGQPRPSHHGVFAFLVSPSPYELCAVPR

[5] = Mouse liver microsomal stability screen; settings: Mouse liver microsomes
Cathepsin-L = Cathepsin-L (Homo sapiens, UniProt P07711); assay: Specificity assay against Cathepsin-L; type: biochemical
Chain of Cathepsin-L (P07711 114-333, species assumed): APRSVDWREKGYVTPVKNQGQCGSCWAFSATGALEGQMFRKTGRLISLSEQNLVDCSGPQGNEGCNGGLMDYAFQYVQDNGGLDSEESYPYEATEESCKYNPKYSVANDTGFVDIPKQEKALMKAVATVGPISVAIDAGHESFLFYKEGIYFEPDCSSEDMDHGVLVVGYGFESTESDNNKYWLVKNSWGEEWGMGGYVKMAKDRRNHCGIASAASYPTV
Procedure: Purified recombinant enzyme was incubated with various concentrations of inhibitor in appropriate assay buffers in the presence of increasing concentrations of inhibitor. The formation of fluorescent product was monitored in duplicate reactions and the data was fit to appropriate equations to calculate the IC50 values.

IC50 in intact Pala cells [1]: slightly larger IC50 values
SMILES: N#CSc1cnc(N)s1 [Compound 10]
AEP activity after addition of reducing agent (reversibility) (AEP): regained a substantial amount of activity | APP cleavage after OGD ([2]; 1 μM compound): blocked | APP cleavage after OGD, dose dependence ([2]; FIG. 7E): dose-dependent decrease

A −>B Papp (Caco-2 monolayer; table of derivatives): 10.0 10^−6 cm · s^−1 | B −> A Papp (Caco-2 monolayer; table of derivatives): 30.5 10^−6 cm · s^−1 | RE (Caco-2 monolayer; table of derivatives): 3.0
SMILES: Cn1c(S)nc2c1c(=O)n(Cc1ccccc1)c(=O)n2C [Compound 38D-22]

A −>B Papp (Caco-2 monolayer; table of derivatives): 0.2 10^−6 cm · s^−1 | RE (Caco-2 monolayer; table of derivatives): 8.1
SMILES: CNC(=C[N+](=O)[O-])NCCSCc1ccc(CN(C)C)o1 [Ranitidine, reference compound]

Continued, molecule first:

SMILES: COc1ccc(N2CCN(C(c3ccc(N(C)C)cc3)c3nnnn3C(C)(C)C)CC2)cc1 (centres unmarked) [Compound 31]
CYP3A4-Midazolam inhibition (CYP3A4; 3 μM): −0.9% | CYP3A4-Midazolam inhibition (CYP3A4; 10 μM): 18.1% | CYP2C19 inhibition (CYP2C19; 3 μM): 37.7% | CYP2C19 inhibition (CYP2C19; 10 μM): 55.7% | CYP2C9 inhibition (CYP2C9; 3 μM): 47.8% | CYP2C9 inhibition (CYP2C9; 10 μM): 69.2% | CYP3A-Testosterone inhibition (CYP3A; 3 μM): 2.5% | CYP3A-Testosterone inhibition (CYP3A; 10 μM): 0.7% | Mean Remaining Parent (NADPH-free) [3]: 75% | Mean Remaining Parent (with NADPH) ([3]; 30 min): 12% | CYP1A2 inhibition (CYP1A2; 3 μM): 13.5% | CYP1A2 inhibition (CYP1A2; 10 μM): 10.3% | Caco-2 permeability in words (Caco-2 monolayer): highly permeable | A −>B Papp (Caco-2 monolayer; Table 1): 19.3 10^−6 cm · s^−1 | B −> A Papp (Caco-2 monolayer; Table 1): 17.4 10^−6 cm · s^−1 | RE (Caco-2 monolayer; Table 1): 0.9 | APP cleavage after OGD ([2]; 0.1 μM compound): blocked | Pe [4]: <LLOQ | CYP2D6 inhibition (CYP2D6; 3 μM): 9.9% | CYP2D6 inhibition (CYP2D6; 10 μM): 1.4% | Mean Remaining Parent (NADPH-free) [5]: 86% | Mean Remaining Parent (with NADPH) [5]: 16%

SMILES: Cn1c(=O)c2c(nc(S)n2C)n(C)c1=O [Compound 38D-16]
selectivity for AEP over Cathepsin-L (Cathepsin-L): 500 fold | A −>B Papp (Caco-2 monolayer; table of derivatives): 0.9 10^−6 cm · s^−1 | B −> A Papp (Caco-2 monolayer; table of derivatives): 3.0 10^−6 cm · s^−1 | RE (Caco-2 monolayer; table of derivatives): 3.3
